Values joined by “and” are separate entries in the source; they are usually repeats but may differ in a detail not shown here. Identical values can stand only once.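 Cells were grown in 96-well plates and exposed to each compound for 48 hours at five concentrations; endpoints were interpolated linearly between bracketing concentrations, or set to the highest concentration if not reached. The concentration for 50% growth inhibition is given as GI50. At the TGI there is no net growth.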
What was measured:
Assay in all cases: NCI tumour cell line growth inhibition, 48 h
[1] = system: HCC-2998 colon
[2] = system: HCT-116 colon
[3] = system: MOLT-4 leukemia
[4] = system: HT29 colon
[5] = system: SNB-75 CNS
[6] = system: SK-OV-3 ovarian
[7] = system: RXF 393 renal
[8] = system: MDA-MB-435

SMILES | TGI [1] | TGI [2] [µM] | TGI [3] [µM] | TGI [4] [µM] | TGI [5] [µM] | TGI [6] [µM] | TGI [7] [µM] | GI50 [1] [µM] | GI50 [2] [µM] | GI50 [7] | GI50 [3] [µM] | GI50 [4] [µM] | GI50 [5] | GI50 [6] | TGI [8] [µM]
COc1ccc2c(c1)[n+](=O)c(C(=O)C/C(=N/OCCCc1ccccc1)C(=O)NC13CC4CC(CC(C4)C1)C3)c(C)n2[O-] | > 100 µM | > 100 | > 100 | > 100 | > 100 | > 100 | – | – | – | – | – | – | – | – | –
O=C(O)CCSC(=O)Nc1ccc([N+](=O)[O-])cc1 | > 100 µM | > 100 | > 100 | > 100 | 64.7 | – | > 100 | – | – | – | – | – | – | – | –
NC(=O)COC(=O)c1c(Cl)nc2sccn12 | > 100 µM | > 31.6 | > 100 | > 100 | > 100 | > 100 | – | – | – | – | – | – | – | – | –
N#C/C(=C\c1ccc2ccccc2c1)c1ccccc1 | 87.9 µM | > 100 | 94.5 | 74.6 | 48.6 | 70.7 | 65 | – | – | – | – | – | – | – | –
COc1ccc2c(c1)CCCN2c1c2ccccc2nc2ccccc12 | 1.04 µM | 14.3 | > 100 | > 100 | 0.821 | > 100 | 0.786 | 0.311 | 0.334 | 0.27 µM | 0.4 | 0.36 | 0.2 µM | 0.652 µM | –
O=C1c2ccccc2C(=O)N1CCc1ncc[nH]1 | – | > 100 | > 100 | > 100 | – | – | – | – | – | – | – | – | – | – | > 100
CC(=O)OCC1OC(NC(=S)N/N=C2\CC(c3ccccc3)Oc3ccccc32)C(OC(C)=O)C(OC(C)=O)C1OC(C)=O (stereo unspecified) | > 100 µM | > 100 | > 100 | > 100 | > 100 | > 100 | > 100 | – | – | – | – | – | – | – | –
CC(SC(=S)N1CCOCC1)c1cc2oc(=O)n(C)c2cc1Cl (stereo unspecified) | > 100 µM | > 100 | > 100 | > 100 | > 100 | > 100 | > 100 | – | – | – | – | – | – | – | –
C/C(O)=C(\N=O)C(=O)Nc1ccc(Cl)cc1Cl | > 100 µM | > 100 | > 100 | > 100 | > 100 | > 100 | > 100 | – | – | – | – | – | – | – | –
COc1ccc(NC(=O)CC(=O)N/N=C/c2ccc(N(CCC#N)S(C)(=O)=O)cc2)cc1 | > 100 µM | > 100 | > 100 | > 100 | > 100 | > 100 | > 100 | – | – | – | – | – | – | – | –
COc1cc(C(=O)CBr)c(OC)cc1C | – | > 100 | > 100 | > 100 | – | > 100 | > 100 | – | – | – | – | – | – | – | > 100
CC(C)(CO)N1CCN(C(=S)Nc2ccccc2)CC1 | – | > 100 | – | > 100 | > 100 | > 100 | > 100 | – | – | – | – | – | – | – | > 100
CCCCCCCC(=O)OCC/C=C/C1OC1C1OC(=O)/C=C\C=C\c2nc(oc2C)/C=C(/C)CCC2OC2C1OC(=O)NC(C)=O (stereo unspecified) | 0.0739 µM | 0.368 | 1.81 | 1.12 | 0.0765 | 1.33 | 0.0562 | 0.0208 | 0.00922 | 0.0184 µM | 0.047 | 0.0397 | 0.0277 µM | 0.0643 µM | –
Cc1c(C(=O)C/C(=N/NC(=O)C[N+](C)(C)C)C(=O)Nc2ccc(Cl)cc2)[n+](=O)c2ccccc2n1O | > 100 µM | > 100 | > 100 | > 100 | > 100 | – | > 100 | – | – | – | – | – | – | – | –
Cn1c2ccccc2c2ccc3c(c21)C(=O)c1ccccc1C3=O | > 100 µM | 40.6 | – | 39.5 | – | 61.9 | 32 | – | – | – | – | – | – | – | 32.2
O=C(O)C(CS)Nc1c2ccccc2nc2ccccc12 (stereo unspecified) | > 100 µM | – | > 100 | > 100 | > 100 | > 100 | > 100 | – | – | – | – | – | – | – | –
CC(=O)O[C@H]1C(=O)[C@@]2(C)C(C(OC(=O)c3ccccc3)[C@]3(O)CC(OC(=O)[C@H](OC(=O)CCC(=O)O)C(NC(=O)c4ccccc4)c4ccccc4)C(C)=C1C3(C)C)C1(OC(C)=O)COC1C[C@@H]2O (stereo partly specified) | > 100 µM and 20.3 µM | > 100 | 1.05 | – | – | > 100 | 2.79 | – | – | < 0.0249 µM and 0.0528 µM | – | – | 0.022 µM and 0.076 µM | < 0.0159 µM and 0.0343 µM | –
CCCC1N2CCCCC2[C@@H]2c3[nH]c4ccccc4c3CCN12 (stereo partly specified) | > 100 µM | > 100 | > 100 | > 100 | > 100 | > 100 | > 100 | – | – | – | – | – | – | – | –
O=C(CC1(O)C(=O)Nc2c(Cl)ccc(Cl)c21)c1ccc(F)cc1 (stereo unspecified) | > 100 µM | – | 95.6 | > 100 | 74.7 | > 100 | 92.2 | – | – | – | – | – | – | – | –

— PubChem BioAssay (NCI)
